According to ChEMBL document CHEMBL3763135, “Synthesis and evaluation of thiophene-based guanylhydrazones (iminoguanidines) efficient against panel of voriconazole-resistant fungal isolates” (Bioorg Med Chem, 2016):
Values after ≈ are worked out from the molar mass of the structure shown. Active and inactive are the calls of the source. The rule behind the calls is not given here.

What was measured:
Danio rerio [1] = experiment: Toxicity against zebrafish embryo assessed as pericardial edema at 5 ug/ml measured at 96 hrs post fertilization by inverted microscopic analysis; format: organism-based; details: in vivo
Danio rerio [2] = species: Danio rerio; experiment: Toxicity against zebrafish embryo assessed as effect on heart beat at 2.5 ug/ml measured at 96 hrs post fertilization by inverted microscopic analysis; format: organism-based; details: in vivo
Candida albicans [3] = experiment: Antifungal activity against Candida albicans ATCC 10231 by broth dilution method; format: functional
[4] = Toxicity against zebrafish embryo assessed as dead embryos at 5 ug/ml measured at 96 hrs post fertilization by inverted microscopic analysis; format: organism-based, Danio rerio; details: read-out: Activity
Fusarium oxysporum = experiment: Antifungal activity against Fusarium oxysporum AB18 by broth dilution method; format: functional
Candida albicans [5] = experiment: Antibiofilm activity against Candida albicans ATCC 10231 assessed as disruption of preformed biofilm after 24 hrs by concanavalin A-FITC-staining based fluorescence microscopic analysis; format: functional
Danio rerio [6] = species: Danio rerio; experiment: Toxicity against zebrafish embryo assessed as effect on eyes at 5 ug/ml measured at 96 hrs post fertilization by inverted microscopic analysis; format: organism-based; details: in vivo
Danio rerio [7] = species: Danio rerio; experiment: Toxicity against zebrafish embryo assessed as effect on otoliths at 2.5 ug/ml measured at 96 hrs post fertilization by inverted microscopic analysis; format: organism-based; details: in vivo
Danio rerio [8] = species: Danio rerio; experiment: Toxicity against zebrafish embryo assessed as effect on blood circulation at 2.5 ug/ml measured at 96 hrs post fertilization by inverted microscopic analysis; format: organism-based; details: in vivo
Danio rerio [9] = species: Danio rerio; experiment: Toxicity against zebrafish embryo assessed as normal embryos at 10 ug/ml measured at 96 hrs post fertilization by inverted microscopic analysis; format: organism-based; details: in vivo
Aspergillus fumigatus = experiment: Antifungal activity against Aspergillus fumigatus ATCC 13073 by broth dilution method; format: functional
Danio rerio [10] = species: Danio rerio; experiment: Toxicity against zebrafish embryo assessed as head malformation at 5 ug/ml measured at 96 hrs post fertilization by inverted microscopic analysis; format: organism-based; details: in vivo
Candida albicans [11] = experiment: Antifungal activity against Candida albicans CA5 by broth dilution method; format: functional
[12] = Induction of membrane damage in PC/PS liposome assessed as calcein release at MIC after 30 mins by fluorescence-based liposome leakage assay; format: functional
Danio rerio [13] = species: Danio rerio; experiment: Toxicity against zebrafish embryo assessed as effect on tail tip at 2.5 ug/ml measured at 96 hrs post fertilization by inverted microscopic analysis; format: organism-based; details: in vivo
Danio rerio [14] = species: Danio rerio; experiment: Toxicity against zebrafish embryo assessed as skeletal deformities at 5 ug/ml measured at 96 hrs post fertilization by inverted microscopic analysis; format: organism-based; details: in vivo
Danio rerio [15] = species: Danio rerio; experiment: Toxicity against zebrafish embryo assessed as effect on blood circulation at 5 ug/ml measured at 96 hrs post fertilization by inverted microscopic analysis; format: organism-based; details: in vivo
[16] = Toxicity against zebrafish embryo measured at 96 hrs post fertilization by inverted microscopic analysis; format: organism-based, Danio rerio; details: zebrafish embryos
Danio rerio [17] = species: Danio rerio; experiment: Toxicity against zebrafish embryo assessed as normal embryos at 25 ug/ml measured at 96 hrs post fertilization by inverted microscopic analysis; format: organism-based; details: in vivo
Candida parapsilosis [18] = experiment: Antifungal activity against Candida parapsilosis C27 by broth dilution method; format: functional
Danio rerio [19] = species: Danio rerio; experiment: Toxicity against zebrafish embryo assessed as unhatched embryos at 5 ug/ml measured at 96 hrs post fertilization by inverted microscopic analysis; format: organism-based; details: in vivo
Danio rerio [20] = species: Danio rerio; experiment: Toxicity against zebrafish embryo assessed as teratogenic embryos at 2.5 ug/ml measured at 96 hrs post fertilization by inverted microscopic analysis; format: organism-based; details: in vivo
Danio rerio [21] = species: Danio rerio; experiment: Toxicity against zebrafish embryo assessed as teratogenic embryos at 10 ug/ml measured at 96 hrs post fertilization by inverted microscopic analysis; format: organism-based; details: in vivo
Danio rerio [22] = species: Danio rerio; experiment: Toxicity against zebrafish embryo assessed as skeletal deformities at 2.5 ug/ml measured at 96 hrs post fertilization by inverted microscopic analysis; format: organism-based; details: in vivo
Danio rerio [23] = species: Danio rerio; experiment: Toxicity against zebrafish embryo assessed as effect on eyes at 2.5 ug/ml measured at 96 hrs post fertilization by inverted microscopic analysis; format: organism-based; details: in vivo
[24] = Toxicity against zebrafish embryo assessed as dead embryos at 50 ug/ml measured at 96 hrs post fertilization by inverted microscopic analysis; format: organism-based, Danio rerio; details: read-out: Activity
Danio rerio [25] = species: Danio rerio; experiment: Toxicity against zebrafish embryo assessed as normal embryos at 5 ug/ml measured at 96 hrs post fertilization by inverted microscopic analysis; format: organism-based; details: in vivo
Danio rerio [26] = experiment: Toxicity against zebrafish embryo assessed as yolk edema at 2.5 ug/ml measured at 96 hrs post fertilization by inverted microscopic analysis; format: organism-based; details: in vivo
[27] = Toxicity against zebrafish embryo assessed as dead embryos at 2.5 ug/ml measured at 96 hrs post fertilization by inverted microscopic analysis; format: organism-based, Danio rerio; details: read-out: Activity
Danio rerio [28] = species: Danio rerio; experiment: Toxicity against zebrafish embryo assessed as teratogenic embryos at 5 ug/ml measured at 96 hrs post fertilization by inverted microscopic analysis; format: organism-based; details: in vivo
Candida albicans [29] = experiment: Antibiofilm activity against Candida albicans assessed as inhibition of Spider medium-induced hyphae formation at sub-MIC after 24 hrs by propidium iodide and FITC-conjugated concanavaline A staining based fluorescence microscopy; format: functional, organism-based
Candida albicans [30] = experiment: Antifungal activity against Candida albicans CA5 assessed as fungal growth at sub-MIC measured after 24 hrs by time-kill dependence-based spectrophotometric analysis relative to DMSO control; format: functional, organism-based
[31] = system: Trichophyton mentagrophytes; experiment: Antifungal activity against Trichophyton mentagrophytes DMT4 by broth dilution method; format: functional
Danio rerio [32] = species: Danio rerio; experiment: Toxicity against zebrafish embryo assessed as effect on heart beat at 5 ug/ml measured at 96 hrs post fertilization by inverted microscopic analysis; format: organism-based; details: in vivo
Pichia kudriavzevii [33] = experiment: Antifungal activity against Candida krusei ATCC 34135 by broth dilution method; format: functional
Pichia kudriavzevii [34] = experiment: Antibiofilm activity against Pichia kudriavzevii ATCC 34135 assessed as disruption of preformed biofilm after 24 hrs by concanavalin A-FITC-staining based fluorescence microscopic analysis; format: functional
Danio rerio [35] = experiment: Toxicity against zebrafish embryo assessed as yolk edema at 5 ug/ml measured at 96 hrs post fertilization by inverted microscopic analysis; format: organism-based; details: in vivo
Danio rerio [36] = species: Danio rerio; experiment: Toxicity against zebrafish embryo assessed as normal embryos at 50 ug/ml measured at 96 hrs post fertilization by inverted microscopic analysis; format: organism-based; details: in vivo
Danio rerio [37] = species: Danio rerio; experiment: Toxicity against zebrafish embryo assessed as teratogenic embryos at 50 ug/ml measured at 96 hrs post fertilization by inverted microscopic analysis; format: organism-based; details: in vivo
Candida parapsilosis [38] = experiment: Antibiofilm activity against Candida parapsilosis C27 assessed as disruption of preformed biofilm after 24 hrs by concanavalin A-FITC-staining based fluorescence microscopic analysis; format: functional
Danio rerio [39] = species: Danio rerio; experiment: Toxicity against zebrafish embryo assessed as growth retardation at 5 ug/ml measured at 96 hrs post fertilization by inverted microscopic analysis; format: organism-based; details: in vivo
Danio rerio [40] = experiment: Toxicity against zebrafish embryo assessed as pericardial edema at 2.5 ug/ml measured at 96 hrs post fertilization by inverted microscopic analysis; format: organism-based; details: in vivo
Danio rerio [41] = species: Danio rerio; experiment: Toxicity against zebrafish embryo assessed as normal embryos at 2.5 ug/ml measured at 96 hrs post fertilization by inverted microscopic analysis; format: organism-based; details: in vivo
[42] = Toxicity against zebrafish embryo assessed as dead embryos at 25 ug/ml measured at 96 hrs post fertilization by inverted microscopic analysis; format: organism-based, Danio rerio; details: read-out: Activity
Candida albicans [43] = experiment: Antifungal activity against Candida albicans CA5 assessed as fungal growth at sub-MIC measured over 12 hrs by time-kill dependence-based spectrophotometric analysis relative to DMSO control; format: functional
Microsporum canis = experiment: Antifungal activity against Microsporum canis DMT2 by broth dilution method; format: functional
Danio rerio [44] = species: Danio rerio; experiment: Toxicity against zebrafish embryo assessed as growth retardation at 2.5 ug/ml measured at 96 hrs post fertilization by inverted microscopic analysis; format: organism-based; details: in vivo
Danio rerio [45] = species: Danio rerio; experiment: Toxicity against zebrafish embryo assessed as effect on tail tip at 5 ug/ml measured at 96 hrs post fertilization by inverted microscopic analysis; format: organism-based; details: in vivo
Danio rerio [46] = species: Danio rerio; experiment: Toxicity against zebrafish embryo assessed as head malformation at 2.5 ug/ml measured at 96 hrs post fertilization by inverted microscopic analysis; format: organism-based; details: in vivo
Danio rerio [47] = species: Danio rerio; experiment: Toxicity against zebrafish embryo assessed as unhatched embryos at 2.5 ug/ml measured at 96 hrs post fertilization by inverted microscopic analysis; format: organism-based; details: in vivo
Danio rerio [48] = species: Danio rerio; experiment: Toxicity against zebrafish embryo assessed as effect on otoliths at 5 ug/ml measured at 96 hrs post fertilization by inverted microscopic analysis; format: organism-based; details: in vivo
Danio rerio [49] = species: Danio rerio; experiment: Toxicity against zebrafish embryo assessed as effect on notochord at 2.5 ug/ml measured at 96 hrs post fertilization by inverted microscopic analysis; format: organism-based; details: in vivo
Danio rerio [50] = species: Danio rerio; experiment: Toxicity against zebrafish embryo assessed as teratogenic embryos at 25 ug/ml measured at 96 hrs post fertilization by inverted microscopic analysis; format: organism-based; details: in vivo
[51] = Toxicity against zebrafish embryo assessed as dead embryos at 10 ug/ml measured at 96 hrs post fertilization by inverted microscopic analysis; format: organism-based, Danio rerio; details: read-out: Activity
Danio rerio [52] = species: Danio rerio; experiment: Toxicity against zebrafish embryo assessed as effect on notochord at 5 ug/ml measured at 96 hrs post fertilization by inverted microscopic analysis; format: organism-based; details: in vivo
[53] = Hemolytic effect in sheep RBC assessed as release of hemoglobin at 40 ug/ml after 1 hr; format: ADME, cell-based, Ovis aries; details: erythrocyte

Q: Which Activity (Danio rerio [1]) does the source give for `C[C@@H](c1ncncc1F)[C@](O)(Cn1cncn1)c1ccc(F)cc1F` [VORICONAZOLE] here?
A: 100%

Q: And the Activity (Danio rerio [2])?
A: 0%

Q: And the MIC (Candida albicans [3])?
A: 0.5 µg/mL (≈ 1.43 µM)

Q: What about the mortality at 96 h, 5 ug/ml [4] of the same molecule?
A: 80%

Q: What about the MIC (Fusarium oxysporum) of the same molecule?
A: inactive

Q: What about the MBEC (Candida albicans [5]) of the same molecule?
A: 250 µg/mL

Q: And the Activity (Danio rerio [6])?
A: 100%

Q: And the Activity (Danio rerio [7])?
A: 100%

Q: What about the Activity (Danio rerio [8]) of the same molecule?
A: 0%

Q: And the Activity (Danio rerio [9])?
A: 0%

Q: What about the MIC (Aspergillus fumigatus) of the same molecule?
A: 0.06 µg/mL (≈ 0.172 µM)

Q: And the Activity (Danio rerio [10])?
A: 100%

Q: What about the MIC (Candida albicans [11]) of the same molecule?
A: inactive

Q: What about the Activity [12] of the same molecule?
A: 12%

Q: What about the Activity (Danio rerio [13]) of the same molecule?
A: 0%

Q: What about the Activity (Danio rerio [14]) of the same molecule?
A: 100%

Q: And the Activity (Danio rerio [15])?
A: 100%

Q: What about the LC50 at 96 h [16] of the same molecule?
A: 3.1 µg/mL (≈ 8.87 µM)

Q: And the Activity (Danio rerio [17])?
A: 0%

Q: What about the MIC (Candida parapsilosis [18]) of the same molecule?
A: inactive

Q: What about the Activity (Danio rerio [19]) of the same molecule?
A: 0%

Q: What about the Activity (Danio rerio [20]) of the same molecule?
A: 63.33%

Q: And the Activity (Danio rerio [21])?
A: 0%

Q: And the Activity (Danio rerio [22])?
A: 94.74%

Q: And the Activity (Danio rerio [23])?
A: 100%

Q: What about the mortality at 96 h, 50 ug/ml [24] of the same molecule?
A: 100%

Q: What about the Activity (Danio rerio [25]) of the same molecule?
A: 0%

Q: And the Activity (Danio rerio [26])?
A: 0%

Q: What about the mortality at 96 h, 2.5 ug/ml [27] of the same molecule?
A: 36.7%

Q: And the Activity (Danio rerio [28])?
A: 20%

Q: And the Activity (Candida albicans [29])?
A: Active

Q: And the Activity (Candida albicans [30])?
A: inactive

Q: What about the MIC [31] of the same molecule?
A: 0.25 µg/mL (≈ 0.716 µM)

Q: What about the Activity (Danio rerio [32]) of the same molecule?
A: 100%

Q: What about the MIC (Pichia kudriavzevii [33]) of the same molecule?
A: 0.06 µg/mL (≈ 0.172 µM)

Q: What about the MBEC (Pichia kudriavzevii [34]) of the same molecule?
A: 250 µg/mL

Q: And the Activity (Danio rerio [35])?
A: 100%

Q: And the Activity (Danio rerio [36])?
A: 0%

Q: What about the Activity (Danio rerio [37]) of the same molecule?
A: 0%

Q: And the MBEC (Candida parapsilosis [38])?
A: inactive

Q: And the Activity (Danio rerio [39])?
A: 100%

Q: And the Activity (Danio rerio [40])?
A: 100%

Q: And the Activity (Danio rerio [41])?
A: 0%

Q: And the mortality at 96 h, 25 ug/ml [42]?
A: 100%

Q: What about the Activity (Candida albicans [43]) of the same molecule?
A: Active

Q: And the MIC (Microsporum canis)?
A: 0.5 µg/mL (≈ 1.43 µM)

Q: What about the Activity (Danio rerio [44]) of the same molecule?
A: 100%

Q: And the Activity (Danio rerio [45])?
A: 0%

Q: And the Activity (Danio rerio [46])?
A: 100%

Q: What about the Activity (Danio rerio [47]) of the same molecule?
A: 0%

Q: What about the Activity (Danio rerio [48]) of the same molecule?
A: 100%

Q: And the Activity (Danio rerio [49])?
A: 0%

Q: What about the Activity (Danio rerio [50]) of the same molecule?
A: 0%

Q: And the mortality at 96 h, 10 ug/ml [51]?
A: 100%

Q: And the Activity (Danio rerio [52])?
A: 0%

Q: For NYSTATIN, which Activity [53] is on record?
A: 35%
